What was measured:
Assay type in all cases: functional, organism-based
Trypanosoma cruzi = experiment: Antimicrobial activity against Trypanosoma cruzi
Leishmania infantum = experiment: Antimicrobial activity against Leishmania infantum
Trichomonas vaginalis = experiment: Antimicrobial activity against Trichomonas vaginalis
Leishmania donovani = experiment: Antimicrobial activity against Leishmania donovani
Plasmodium falciparum = experiment: Antimicrobial activity against Plasmodium falciparum

| SMILES | IC50 (Trypanosoma cruzi; Trypanosoma cruzi) [µM] | IC50 (Leishmania infantum) [µM] | IC50 (Trichomonas vaginalis) [µM] | also measured |
| --- | --- | --- | --- | --- |
| Cn1c2nc3ccccc3c-2cc2cc(Br)ccc21 | 32 |  |  |  |
| CCN(CC)c1nc2ccc(N)cc2s1 |  | 23 | 200 |  |
| CSCCOc1ccc(Oc2ccccc2)cc1 | 100 |  |  |  |
| CN(C)c1nc2ccc(N)cc2s1 |  | 2 | 200 |  |
| O=C(O)c1ccccc1Nc1ccc2nc(NCCO)sc2c1 |  | 4 | 158 |  |
| C[S+]([O-])CCCCN=C=S (centres undefined) [SULFORAPHANE] | 120 |  |  | IC50 (Trypanosoma cruzi): 102 µM |
| c1ccc(Oc2ccc(OCN3CC3)cc2)cc1 | 42 |  |  |  |
| COc1cc(NS(C)(=O)=O)ccc1Nc1nc2ccc(N)cc2s1 |  | 10 | 156 |  |
| [N-]=[N+]=NC(CO)COc1ccc(Oc2ccccc2)cc1 (centres undefined) | 70 |  |  |  |
| O=C=NCCOc1ccc(Oc2ccccc2)cc1 | 70 |  |  |  |
| COc1ccc(CCNC(=O)/C=C/C=C/c2ccc3c(c2)OCO3)cc1OC | 66 |  |  |  |
| O=C(/C=C/c1ccc2c(c1)OCO2)N1CCOCC1 | 96 |  |  |  |
| O=C(O)c1ccccc1Nc1ccc2nc(N3CCCCC3)sc2c1 |  | 15 | 83 |  |
| O=C(/C=C/C=C/c1ccc2c(c1)OCO2)N1CCCCC1 [PIPERINE] | 5 |  |  |  |
| O=[N+]([O-])c1ccc2nc(Nc3cccc(O)c3)sc2c1 |  | 15 | 174 |  |
| CC(=O)N1CCN(c2ccc(OCC3COC(Cn4ccnc4)(c4ccc(Cl)cc4Cl)O3)cc2)CC1 (centres undefined) [KETOCONAZOLE] | 3 |  |  | IC50 (Leishmania donovani): 2 µM |
| O=C(O)c1ccccc1Nc1ccc2nc(Nc3ccccc3)sc2c1 |  | 30 | 41 |  |
| O=C(O)c1ccccc1Nc1ccc2nc(Cl)sc2c1 |  | 5 | 17 |  |
| O=C(/C=C/C=C/c1ccc2c(c1)OCO2)OC1CCCCC1 | 83 |  |  |  |
| O=[N+]([O-])c1ccc2nc(Nc3ccccc3)sc2c1 |  | 36 | 186 |  |
| Nc1ccc2nc(N)sc2c1 |  | 151 | 200 |  |
| CC(=O)Nc1nc2ccc([N+](=O)[O-])cc2s1 |  | 1 | 200 |  |
| COc1cc(NS(C)(=O)=O)ccc1Nc1nc2ccc([N+](=O)[O-])cc2s1 |  | 18 | 83 |  |
| CCO[C@H]1O[C@@H]2O[C@@]3(C)CC[C@H]4[C@H](C)CC[C@@H]([C@H]1C)[C@@]24OO3 [ARTEMOTIL] |  |  |  | IC50 (Leishmania donovani): 45 µM; IC50 (Plasmodium falciparum): 1000 µM |
| CN(C)c1ccc(Nc2nc3ccc(Nc4ccccc4C(=O)O)cc3s2)cc1 |  | 68 | 26 |  |
| CC(=O)Nc1nc2ccc(Nc3ccccc3C(=O)O)cc2s1 |  | 18 | 18 |  |
| Nc1nc2ccc([N+](=O)[O-])cc2s1 |  | 51 | 200 |  |

| SMILES | IC50 (Trypanosoma cruzi; Trypanosoma cruzi) [µM] | IC50 (Leishmania infantum) [µM] | IC50 (Trichomonas vaginalis) [µM] | also measured |
| --- | --- | --- | --- | --- |
| C[C@@H]1[C@H](O)[C@@H](C)/C=C/C=C/C=C/C=C/C=C/C=C/C=C/[C@H](O[C@@H]2O[C@H](C)[C@@H](O)[C@H](N)[C@@H]2O)C[C@@H]2O[C@](O)(C[C@@H](O)C[C@@H](O)[C@H](O)CC[C@@H](O)C[C@@H](O)CC(=O)O[C@H]1C)C[C@H](O)[C@H]2C(=O)O [AMPHOTERICIN B] |  |  | 12 |  |
| C[C@]12CC[C@H](O)C[C@@H]1CC[C@@H]1[C@@H]2CC[C@@]2(C)[C@H]1CC[C@@H]2[C@@](C)(O)C1CCCCN1 (some centres undefined) | 1 |  |  |  |
| C(/C=C/c1ccc2c(c1)OCO2)=C\CN1CCCCC1 | 10 |  |  |  |
| CCN(CC)c1nc2ccc([N+](=O)[O-])cc2s1 |  | 99 | 200 |  |
| CCCNc1nc2ccc([N+](=O)[O-])cc2s1 |  | 1 | 200 |  |
| O=C(/C=C/C=C/c1ccc2c(c1)OCO2)NCC1CCCCC1 | 81 |  |  |  |
| CCN(CC)CCCNc1nc2ccc(N)cc2s1 |  | 65 | 200 |  |
| COc1cc(NS(C)(=O)=O)ccc1Nc1nc2ccc(Nc3ccccc3C(=O)O)cc2s1 |  | 13 | 22 |  |
| N#CSCCOc1ccc(Nc2ccccc2)cc1 | 3 |  |  |  |
| CN(C)c1nc2ccc(Nc3ccccc3C(=O)O)cc2s1 |  | 80 | 102 |  |
| Cn1c2nc3ccc(C#N)cc3c-2cc2cc(F)ccc21 | 32 |  |  |  |
| CCN(CC)CCCNc1nc2ccc(Nc3ccccc3C(=O)O)cc2s1 |  | 2 | 134 |  |
| O=[N+]([O-])c1ccc2nc(NCCO)sc2c1 |  | 104 | 200 |  |
| O=C(O)c1ccccc1Nc1ccc2nc(Nc3cccc(O)c3)sc2c1 |  | 237 | 134 |  |
| CCCC[C@@]12CC[C@H]3[C@H](C)CC[C@H]4CC(=O)O[C@H](O1)[C@]43OO2 |  |  |  | IC50 (Leishmania donovani): 258 µM |
| O=C(CCCCc1ccc2c(c1)OCO2)N1CCCCC1 [TETRAHYDROPIPERINE] | 19 |  |  |  |
| Nc1ccc2nc(Nc3cccc(O)c3)sc2c1 |  | 19 | 200 |  |
| C[C@@H]1CC[C@H]2[C@@H](CCCCc3ccccc3)C(=O)O[C@@H]3O[C@@]4(C)CC[C@@H]1[C@]32OO4 |  |  |  | IC50 (Leishmania donovani): 8 µM |
| O=C(/C=C/C=C/C=C/c1ccc2c(c1)OCO2)N1CCCCC1 | 7 |  |  |  |
| COc1ccc2c(c1)cc1c3ccccc3nc-1n2C | 2 |  |  | IC50 (Plasmodium falciparum): 5 µM |
| Nc1nc2ccc(Nc3ccccc3C(=O)O)cc2s1 |  | 2 | 125 |  |
| CCCC[C@H]1C(=O)O[C@@H]2O[C@@]3(CC)CC[C@H]4[C@H](C)CC[C@@H]1[C@@]24OO3 |  |  |  | IC50 (Leishmania donovani): 36 µM |
| C[C@@H]1CC[C@H]2CC(=O)O[C@@H]3O[C@@]4(C)CC[C@@H]1[C@@]23OO4 |  |  |  | IC50 (Leishmania donovani): 242 µM |
| CCCC[C@H]1C(=O)O[C@@H]2O[C@@]3(C)CC[C@H]4[C@H](C)CC[C@@H]1[C@@]24OO3 |  |  |  | IC50 (Leishmania donovani): 12 µM |
| Nc1ccc2nc(NCCO)sc2c1 |  | 3 | 200 |  |
| C[C@@H]1CC[C@H]2[C@@H](CCCc3cccc(Cl)c3)CO[C@@H]3O[C@@]4(C)CC[C@@H]1[C@]32OO4 |  |  |  | IC50 (Leishmania donovani): 4 µM |
| COc1ccc2cc3c4ccccc4nc-3n(C)c2c1 | 1 |  |  | IC50 (Plasmodium falciparum): 2 µM |

| SMILES | IC50 (Trypanosoma cruzi; Trypanosoma cruzi) [µM] | IC50 (Leishmania infantum) [µM] | IC50 (Trichomonas vaginalis) [µM] | also measured |
| --- | --- | --- | --- | --- |
| CCOC(=O)CC[C@@]12CC[C@H]3[C@H](C)CC[C@H]4CC(=O)O[C@H](O1)[C@]43OO2 |  |  |  | IC50 (Leishmania donovani): 31 µM |
| O=C(/C=C/c1ccc2c(c1)OCO2)N1CCCCC1 [ILEPCIMIDE] | 97 |  |  |  |
| N#CSCCOc1ccc2[nH]c3ccccc3c2c1 | 10 |  |  |  |
| Cc1ccc2c(c1)cc1c3ccccc3nc-1n2C | 4 |  |  | IC50 (Plasmodium falciparum): 2 µM |
| Cc1ncc([N+](=O)[O-])n1CCO [METRONIDAZOLE] |  |  | 3 |  |
| CCCN(CCC)c1c([N+](=O)[O-])cc(S(=O)(=O)Nc2cc(Cl)cc(Cl)c2)cc1[N+](=O)[O-] |  |  |  | IC50 (Leishmania donovani): 4 µM |
| [N-]=[N+]=NCCOc1ccc(Oc2ccccc2)cc1 | 70 |  |  |  |
| CCCCN(CCCC)c1c([N+](=O)[O-])cc(S(=O)(=O)Nc2ccccc2)cc1[N+](=O)[O-] |  |  |  | IC50 (Leishmania donovani): 3 µM |
| CCCNc1nc2ccc(Nc3ccccc3C(=O)O)cc2s1 |  | 39 | 76 |  |
| O=C(Cn1ccnc1[N+](=O)[O-])NCc1ccccc1 [BENZNIDAZOLE] | 3 |  |  |  |
| O=C(O)/C=C/C=C/c1ccc2c(c1)OCO2 [PIPERIC ACID] | 115 |  |  |  |
| CCN(CC)CCCNc1nc2ccc([N+](=O)[O-])cc2s1 |  | 4 | 49 |  |
| CCCNc1nc2ccc(N)cc2s1 |  | 98 | 200 |  |
| O=[N+]([O-])c1ccc2nc(N3CCCCC3)sc2c1 |  | 6 | 189 |  |
| C[C@@H]1CC[C@H]2[C@H](CCCc3ccccc3)C(=O)O[C@@H]3O[C@@]4(C)CC[C@@H]1[C@]32OO4 |  |  |  | IC50 (Leishmania donovani): 45 µM |
| Nc1ccc2nc(Cl)sc2c1 |  | 54 | 200 |  |
| C[C@@H]1CC[C@H]2[C@@H](CCCc3cccc(F)c3)C(=O)O[C@@H]3O[C@@]4(C)CC[C@@H]1[C@]32OO4 |  |  |  | IC50 (Leishmania donovani): 4 µM |
| C[C@@H]1CC[C@H]2[C@@H](CCCc3ccc(Cl)cc3)C(O)O[C@@H]3O[C@@]4(C)CC[C@@H]1[C@]32OO4 (some centres undefined) |  |  |  | IC50 (Leishmania donovani): 5 µM |
| CN(C)c1ccc(Nc2nc3ccc(N)cc3s2)cc1 |  | 73 | 133 |  |
| c1ccc(CSCCOc2ccc(Oc3ccccc3)cc2)cc1 | 60 |  |  |  |
| CCN(CC)c1nc2ccc(Nc3ccccc3C(=O)O)cc2s1 |  | 33 | 3 |  |
| C[C@@H]1CC[C@H]2[C@@H](CCCc3ccc(Cl)cc3)CO[C@@H]3O[C@@]4(C)CC[C@@H]1[C@]32OO4 |  |  |  | IC50 (Leishmania donovani): 5 µM |
| CN(C)c1ccc(Nc2nc3ccc([N+](=O)[O-])cc3s2)cc1 |  | 25 | 166 |  |
| O=c1ncnc2n([C@H]3O[C@@H](CO)[C@H](O)[C@@H]3O)[nH]cc1-2 [ALLOPURINOL RIBOSIDE] |  |  |  | IC50 (Leishmania donovani): 4 µM |
| N#CSCCOc1ccc([S+]([O-])c2ccccc2)cc1 (centres undefined) | 8 |  |  |  |

From ChEMBL document CHEMBL1212812, “Multi-target spectral moment QSAR versus ANN for antiparasitic drugs against different parasite species” (Bioorg Med Chem, 2010)
